Measurements as given in ChEMBL document CHEMBL1221163, “Monocarboxylate transporter MCT1 is a target for immunosuppression” (Nat Chem Biol, 2005).
Activity calls are given as the source filed them. No cut-off for these calls is given here.

Tests used:
[1] = tested on: T-cell; test: Antiproliferative activity against human T cells assessed as inhibition of PMA-ionomycin stimulated cell proliferation by [3H]thymidine incorporation assay; type: functional, cell-based
[2] = tested on: T-cell; test: Antiproliferative activity against Lewis rat T cells assessed as inhibition of PMA-ionomycin stimulated cell proliferation by [3H]thymidine incorporation assay; type: functional, cell-based
[3] = tested on: PBMC; test: Antiproliferative activity against human PBMC assessed as inhibition of PMA/ionomycin-stimulated cell proliferation by [3H]thymidine incorporation assay; type: functional, cell-based
[4] = tested on: Rattus norvegicus; test: Inhibition of graft-versus-host response-induced lymph node expansion in DA/Lewis recipient rat administered once daily through subcutaneous route; type: functional; conditions: sc
[5] = tested on: T-cell; test: Inhibition of DNA synthesis in PMA-ionomycin stimulated human T cells after 4 hrs by [3H]thymidine incorporation assay; type: functional, cell-based
[6] = tested on: T-cell; test: Reduction in extracellular lactate production in PMA-ionomycin stimulated human T cells after 4 hrs; type: functional, cell-based
[7] = tested on: T-cell; test: Increase in intracellular lactate production in PMA-ionomycin stimulated human T cells after 4 hrs; type: functional, cell-based
[8] = Antiproliferative activity against human T cells assessed as inhibition of PMA-ionomycin stimulated cell proliferation after 3 days by [3H]thymidine incorporation assay; type: functional, cell-based
[9] = tested on: T-cell; test: Inhibition of conversion of [1,2-13C2]glucose into [2,3-13C2]lactate in PMA-ionomycin stimulated human T cells at 10 nM after 6 hrs by GC-MS method; type: functional, cell-based
[10] = target: T1, Monocarboxylate transporter 1 (Homo sapiens) (UniProt P53985); conditions: INS1, 10 nM
T1 sequence (whole entry): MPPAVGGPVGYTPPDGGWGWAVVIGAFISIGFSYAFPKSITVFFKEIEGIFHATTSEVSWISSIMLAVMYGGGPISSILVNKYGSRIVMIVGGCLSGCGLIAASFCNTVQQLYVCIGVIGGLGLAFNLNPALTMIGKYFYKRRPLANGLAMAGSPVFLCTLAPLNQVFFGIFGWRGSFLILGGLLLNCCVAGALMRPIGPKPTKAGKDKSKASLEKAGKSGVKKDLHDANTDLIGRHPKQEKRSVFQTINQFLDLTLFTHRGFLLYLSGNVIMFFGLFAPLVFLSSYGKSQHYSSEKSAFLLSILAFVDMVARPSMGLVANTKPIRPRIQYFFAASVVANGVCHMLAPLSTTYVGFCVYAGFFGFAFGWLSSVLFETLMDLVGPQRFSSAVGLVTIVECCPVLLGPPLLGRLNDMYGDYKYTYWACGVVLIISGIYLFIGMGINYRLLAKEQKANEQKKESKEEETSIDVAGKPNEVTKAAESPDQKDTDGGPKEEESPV

[11] = target: T2, Monocarboxylate transporter 1 (Rattus norvegicus) (UniProt P53987); test: 6-[[4-azido-3-(iodo-125I)phenyl]methyl]-2,6-dihydro-2-methyl-4-(2-methylpropyl)-1H-pyrrolo[3,4-d]pyridazin-1-one from MCT1 in rat RBC ghost membranes at 1 uM by photoaffinity labeling study; type: cell membranes
T2 sequence (whole entry): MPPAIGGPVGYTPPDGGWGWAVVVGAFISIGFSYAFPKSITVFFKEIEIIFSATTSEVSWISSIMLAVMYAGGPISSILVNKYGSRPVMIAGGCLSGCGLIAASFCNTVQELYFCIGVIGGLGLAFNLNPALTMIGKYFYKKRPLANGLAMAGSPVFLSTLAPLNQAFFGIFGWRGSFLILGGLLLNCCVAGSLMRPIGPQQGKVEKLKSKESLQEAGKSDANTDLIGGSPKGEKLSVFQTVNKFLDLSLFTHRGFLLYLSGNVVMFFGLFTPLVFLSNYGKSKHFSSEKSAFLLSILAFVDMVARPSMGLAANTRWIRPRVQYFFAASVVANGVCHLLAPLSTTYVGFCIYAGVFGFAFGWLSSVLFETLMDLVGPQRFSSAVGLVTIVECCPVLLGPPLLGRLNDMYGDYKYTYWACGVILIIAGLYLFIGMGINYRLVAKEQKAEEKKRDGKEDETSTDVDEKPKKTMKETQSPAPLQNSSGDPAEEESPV

[12] = target: T3, Monocarboxylate transporter 1 (Homo sapiens, UniProt P53985); test: Displacement of [3H]5-[(3-hydroxypropyl)thio]-3-methyl-1-[2-(methyl-t)propyl-2,3-t2]-6-(1-naphthalenylmethyl)-1H-pyrrolo[3,4-d]pyrimidine-2,4(3H,6H)-dione from MCT1 in human Jurkat cell membranes
T3 sequence (P53985 whole entry): T1 sequence (whole entry)

[13] = target: T2, Monocarboxylate transporter 1 (Rattus norvegicus); test: 6-[[4-azido-3-(iodo-125I)phenyl]methyl]-2,6-dihydro-2-methyl-4-(2-methylpropyl)-1H-pyrrolo[3,4-d]pyridazin-1-one from MCT1 in rat RBC membranes at 50 nM by photoaffinity labeling study; type: cell membranes

Row | SMILES | inhibition [1] | inhibition [2] | inhibition [3] | IC50 [5] [nM] | IC50 [6] [nM] | IC50 [7] [nM] | IC50 [8] [nM] | IC50 [3] [nM] | further results
1 | CC(C)Cc1nn(C)c(=O)c2c(SCCCO)n(Cc3cccc4ccccc34)cc12 | Active | Active | Active | 1.35 | 0.794 | 0.55 | 0.38 |  | ED50 [4]: 5 mg/kg/day; inhibition [9]: Active; inhibition [10]: Active
2 | CC(C)Cn1c(=O)n(C)c(=O)c2c(SCCCO)n(Cc3cccc4ccccc34)cc21 | Active | Active | Active |  |  |  |  | 2.45 | inhibition [11]: Active
3 | CC(C)Cn1c(=O)n(C)c(=O)c2c(C(=O)N3CC[C@@H](O)C3)c(Cc3c[nH]c4ccccc34)sc21 |  |  |  | 3.31 | 4.27 | 1.55 | 0.912 |  | 
4 | CC(C)Cn1c(=O)n(C)c(=O)c2c(SCCCO)c(Cc3ccccc3C(F)(F)F)sc21 |  |  |  |  |  |  |  | 0.257 | 
5 | CC(C)Cn1c(=O)[nH]c(=O)c2c(C(=O)N3CCC3)c(Cc3ccccc3C(F)(F)F)sc21 |  |  |  |  |  |  |  | > 1000 | Ki [12]: > 200 nM; inhibition [13]: Active
